The AC50 is the concentration at which the activity in the assay is half-maximal.

We go through 29 molecules from patent US20250171437A1 (Agios Pharmaceuticals,Inc., priority 2022, published 2025).

The target of this assay is T1, human PAH with the R408W mutation (A375 R408W cells) (Homo sapiens, UniProt P00439, R408W).
T1 construct: expressed in transfected cells
T1 sequence (P00439 1-452 R408W): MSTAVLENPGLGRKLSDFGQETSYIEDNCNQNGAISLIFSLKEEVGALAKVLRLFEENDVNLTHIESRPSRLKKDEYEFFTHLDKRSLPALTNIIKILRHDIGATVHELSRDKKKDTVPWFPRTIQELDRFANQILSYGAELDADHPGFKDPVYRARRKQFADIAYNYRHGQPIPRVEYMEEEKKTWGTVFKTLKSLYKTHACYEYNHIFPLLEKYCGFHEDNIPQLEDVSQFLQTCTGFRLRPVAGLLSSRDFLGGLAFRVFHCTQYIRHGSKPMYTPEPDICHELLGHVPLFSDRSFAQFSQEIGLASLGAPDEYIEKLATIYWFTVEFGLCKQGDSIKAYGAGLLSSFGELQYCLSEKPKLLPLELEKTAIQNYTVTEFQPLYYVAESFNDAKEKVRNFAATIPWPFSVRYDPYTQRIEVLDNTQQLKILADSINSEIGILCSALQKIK
Briefly: Cell Based Phenylalanine Flux Assay. The conditions noted are these: 24 hrs with compound, then 20 μM sepiapterin and 800 μM 13C9,15N-Phenylalanine for 4 hours, 13C-Tyrosine by LC-MS, average where tested multiple times. In short, it runs like this: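 Stable R408W PAH A375 cells: 24 h compound pretreatment in duplicate, then 4 h with 800 μM isotope-labelled Phe and 20 μM sepiapterin. Labelled Tyr output by LC-MS; AC50 averaged where repeated.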

Where [1] appears, read: A375 cells expressing R408W PAH.

As to `O=C(c1oc(-c2ncccn2)nc1C(F)F)N1CCc2[nH]cnc2[C@H]1c1nc2cc(F)ccc2o1` [Example 661, (S)-(4-(difluoromethyl)-2-(pyrimidin-2-yl)oxazol-5-yl)(4-(5-fluorobenzo[d]oxazol-2-yl)-6,7-dihydro-1H-imidazo[4,5-c]pyridin-5(4H)-yl)methanone], the AC50 (A375 R408W cells) fell in the range of 1000 to 5000 nM.

Regarding `Cn1nc(C2CC2)nc1C(=O)N1CCc2[nH]cnc2[C@@H]1c1nc2cccc(F)c2o1` [Example 498, (R)-(3-cyclopropyl-1-methyl-1H-1,2,4-triazol-5-yl)(4-(7-fluorobenzo[d]oxazol-2-yl)-6,7-dihydro-1H-imidazo[4,5-c]pyridin-5(4H)-yl)methanone], for the setting “A375 R408W cells”, the AC50 lay in the range of 1000 to 5000 nM.

As for `Cn1cc(-c2nnc(C(=O)N3CCc4[nH]cnc4[C@H]3c3nc4cc(F)ccc4o3)o2)c(C(F)(F)F)n1` [Example 118, (S)-(4-(5-fluorobenzo[d]oxazol-2-yl)-6,7-dihydro-1H-imidazo[4,5-c]pyridin-5(4H)-yl)(5-(1-methyl-3-(trifluoromethyl)-1H-pyrazol-4-yl)-1,3,4-oxadiazol-2-yl)methanone], where the note is “A375 R408W cells”, the AC50 was no more than 500 nM.

As to `Cc1ccc2oc([C@H]3c4nc[nH]c4CCN3C(=O)c3ncnn3C)nc2c1` [Example 746, (R)-(1-methyl-1H-1,2,4-triazol-5-yl)(4-(5-methylbenzo[d]oxazol-2-yl)-6,7-dihydro-1H-imidazo[4,5-c]pyridin-5(4H)-yl)methanone], for the setting “A375 R408W cells”, the AC50 is 1000 to 5000 nM.

In the case of `O=C(c1nnc(-c2ccc(F)cc2F)o1)N1CCc2[nH]cnc2[C@@H]1c1nc2cc(F)ccc2o1` [Example 83, (R)-(5-(2,4-difluorophenyl)-1,3,4-oxadiazol-2-yl)(4-(5-fluorobenzo[d]oxazol-2-yl)-6,7-dihydro-1H-imidazo[4,5-c]pyridin-5(4H)-yl)methanone], under “A375 R408W cells”, the AC50 fell in the range of 1000 to 5000 nM.

For `Cc1ccc2oc([C@H]3c4nc[nH]c4CCN3C(=O)c3ocnc3C(F)F)nc2c1` [Example 138, (R)-(4-(difluoromethyl)oxazol-5-yl)(4-(5-methylbenzo[d]oxazol-2-yl)-6,7-dihydro-1H-imidazo[4,5-c]pyridin-5(4H)-yl)methanone], the AC50 (A375 R408W cells) was no more than 500 nM.

As for `O=C(c1nnc(-c2ncccn2)o1)N1CCc2[nH]cnc2C1c1nc2cc(F)ccc2o1` (centres unmarked), the AC50 under setting [1] was 1000 to 5000 nM.

Take `O=C(c1oc(-c2ccc(F)cn2)nc1C(F)F)N1CCc2[nH]cnc2[C@@H]1c1nc2cc(F)ccc2o1` [Example 417, (R)-(4-(difluoromethyl)-2-(5-fluoropyridin-2-yl)oxazol-5-yl)(4-(5-fluorobenzo[d]oxazol-2-yl)-6,7-dihydro-1H-imidazo[4,5-c]pyridin-5(4H)-yl)methanone]: the AC50 (A375 R408W cells) was no more than 500 nM.

On to `Cc1ccc2nc([C@H]3c4nc[nH]c4CCN3C(=O)c3nnc(-c4cnn(C(F)F)c4)o3)oc2c1` [Example 682, (R)-(5-(1-(difluoromethyl)-1H-pyrazol-4-yl)-1,3,4-oxadiazol-2-yl)(4-(6-methylbenzo[d]oxazol-2-yl)-6,7-dihydro-1H-imidazo[4,5-c]pyridin-5(4H)-yl)methanone], for which the AC50 (A375 R408W cells) was no less than 5000 nM.

In the case of `O=C(c1ocnc1C(F)(F)F)N1CCc2[nH]cnc2[C@H]1c1nc2c(F)cccc2o1` [Example 167, (S)-(4-(4-fluorobenzo[d]oxazol-2-yl)-6,7-dihydro-1H-imidazo[4,5-c]pyridin-5(4H)-yl)(4-(trifluoromethyl)oxazol-5-yl)methanone], the AC50 (A375 R408W cells) was no more than 500 nM.

`COc1cccc2oc([C@H]3c4nc[nH]c4CCN3C(=O)c3nc(C)nn3C)nc12` [Example 828, (R)-(1,3-dimethyl-1H-1,2,4-triazol-5-yl)(4-(4-methoxybenzo[d]oxazol-2-yl)-6,7-dihydro-1H-imidazo[4,5-c]pyridin-5(4H)-yl)methanone]: under “A375 R408W cells”, the AC50 is no less than 5000 nM.

For `CC(C)(O)c1ncc(C(=O)N2CCc3[nH]cnc3[C@H]2c2nc3c(F)cccc3o2)o1` [Example 893, (S)-(4-(4-fluorobenzo[d]oxazol-2-yl)-6,7-dihydro-1H-imidazo[4,5-c]pyridin-5(4H)-yl)(2-(2-hydroxypropan-2-yl)oxazol-5-yl)methanone], for the setting “A375 R408W cells”, the AC50 was 1000 to 5000 nM.

As for `CC(O)c1nc(Br)c(C(=O)N2CCc3[nH]cnc3[C@@H]2c2nc3cc(F)ccc3o2)o1` (single isomer, unassigned) [Example 224], the AC50 (A375 R408W cells) lay within 1000 to 5000 nM.

Regarding `Cc1nc(C(=O)N2CCc3[nH]cnc3[C@H]2c2nc3cccc(F)c3o2)n(C)n1` [Example 495, (S)-(1,3-dimethyl-1H-1,2,4-triazol-5-yl)(4-(7-fluorobenzo[d]oxazol-2-yl)-6,7-dihydro-1H-imidazo[4,5-c]pyridin-5(4H)-yl)methanone], the AC50 (A375 R408W cells) lay within 1000 to 5000 nM.

`COc1cccc2nc([C@@H]3c4nc[nH]c4CCN3C(=O)c3ncnn3C)oc12` [Example 775, (S)-(4-(7-methoxybenzo[d]oxazol-2-yl)-6,7-dihydro-1H-imidazo[4,5-c]pyridin-5(4H)-yl)(1-methyl-1H-1,2,4-triazol-5-yl)methanone]: where the note is “A375 R408W cells”, the AC50 was 500 to 1000 nM.

For the molecule `COc1ccc(-c2nnc(C(=O)N3CCc4[nH]cnc4[C@H]3c3nc4cc(C)ccc4o3)o2)nc1` [Example 677, (S)-(5-(5-methoxypyridin-2-yl)-1,3,4-oxadiazol-2-yl)(4-(5-methylbenzo[d]oxazol-2-yl)-6,7-dihydro-1H-imidazo[4,5-c]pyridin-5(4H)-yl)methanone], under “A375 R408W cells”, the AC50 was no more than 500 nM.

Turning to `O=C(c1nnc(-c2c(F)cccc2F)o1)N1CCc2[nH]cnc2[C@@H]1c1nc2cc(F)ccc2o1` [Example 26, (R)-(5-(2,6-difluorophenyl)-1,3,4-oxadiazol-2-yl)(4-(5-fluorobenzo[d]oxazol-2-yl)-6,7-dihydro-1H-imidazo[4,5-c]pyridin-5(4H)-yl)methanone], the AC50 (A375 R408W cells) lay in the range of 500 to 1000 nM.

Consider `O=C(c1oc(-c2cccnc2)nc1C(F)F)N1CCc2[nH]cnc2[C@@H]1c1nc2cccc(F)c2o1` [Example 589, (R)-(4-(difluoromethyl)-2-(pyridin-3-yl)oxazol-5-yl)(4-(7-fluorobenzo[d]oxazol-2-yl)-6,7-dihydro-1H-imidazo[4,5-c]pyridin-5(4H)-yl)methanone], for which, where the note is “A375 R408W cells”, the AC50 was no more than 500 nM.

In the case of `CC(C)(O)c1ncc(C(=O)N2CCc3[nH]cnc3[C@@H]2c2nc3c(F)cccc3o2)o1` [Example 894, (R)-(4-(4-fluorobenzo[d]oxazol-2-yl)-6,7-dihydro-1H-imidazo[4,5-c]pyridin-5(4H)-yl)(2-(2-hydroxypropan-2-yl)oxazol-5-yl)methanone], the AC50 (A375 R408W cells) was in the range of 1000 to 5000 nM.

`O=C(c1oc(-c2ccccn2)nc1C(F)(F)F)N1CCc2[nH]cnc2[C@H]1c1nc2cccc(F)c2o1` [Example 638, (S)-(4-(7-fluorobenzo[d]oxazol-2-yl)-6,7-dihydro-1H-imidazo[4,5-c]pyridin-5(4H)-yl)(2-(pyridin-2-yl)-4-(trifluoromethyl)oxazol-5-yl)methanone]: the AC50 (A375 R408W cells) is no more than 500 nM.

On to `O=C(c1nnc(-c2cn[nH]c2)o1)N1CCc2[nH]cnc2C1c1nc2c(F)cccc2o1` (centres unmarked), for which the AC50 under setting [1] lay in the range of 1000 to 5000 nM.

Regarding `Cc1ncoc1C(=O)N1CCc2[nH]cnc2[C@H]1c1nc2c(F)ccc(F)c2o1` [Example 807, (S)-(4-(4,7-difluorobenzo[d]oxazol-2-yl)-6,7-dihydro-1H-imidazo[4,5-c]pyridin-5(4H)-yl)(4-methyloxazol-5-yl)methanone], the AC50 (A375 R408W cells) is no more than 500 nM.

Consider `O=C(c1oc(-c2ccncc2)nc1C(F)F)N1CCc2[nH]cnc2[C@@H]1c1nc2cccc(F)c2o1` [Example 559, (R)-(4-(difluoromethyl)-2-(pyridin-4-yl)oxazol-5-yl)(4-(7-fluorobenzo[d]oxazol-2-yl)-6,7-dihydro-1H-imidazo[4,5-c]pyridin-5(4H)-yl)methanone], for which the AC50 (A375 R408W cells) was no more than 500 nM.

As for `COCc1ccc2c(C(=O)N3CCc4[nH]cnc4[C@@H]3c3nc4c(F)cccc4o3)cnn2c1` [Example 276, (R)-(4-(4-fluorobenzo[d]oxazol-2-yl)-6,7-dihydro-1H-imidazo[4,5-c]pyridin-5(4H)-yl)(6-(methoxymethyl)pyrazolo[1,5-a]pyridin-3-yl)methanone], the AC50 (A375 R408W cells) was no less than 5000 nM.

On to `Cc1ccc2nc(C3c4nc[nH]c4CCN3C(=O)c3cnn4cc(CCN(C)C)ccc34)oc2c1` (centres unmarked), for which the AC50 under setting [1] was in the range of 1000 to 5000 nM.

Turning to `Cc1cccc2nc(C3c4nc[nH]c4CCN3C(=O)c3ccnn3-c3ccccn3)oc12` (centres unmarked), the AC50 under setting [1] was 1000 to 5000 nM.

On to `COc1cccc2nc(C3c4nc[nH]c4CCN3C(=O)c3nc(C(C)(C)C)nn3C)oc12` (centres unmarked), for which, under setting [1], the AC50 was in the range of 1000 to 5000 nM.

For `COc1ccc2oc([C@@H]3c4nc[nH]c4CCN3C(=O)c3nnc(-c4ccccn4)o3)nc2c1` [Example 555, (S)-(4-(5-methoxybenzo[d]oxazol-2-yl)-6,7-dihydro-1H-imidazo[4,5-c]pyridin-5(4H)-yl)(5-(pyridin-2-yl)-1,3,4-oxadiazol-2-yl)methanone], under “A375 R408W cells”, the AC50 is 500 to 1000 nM.

Consider `Cc1ccc2nc(C3c4nc[nH]c4CCN3C(=O)c3cncs3)oc2c1` (centres unmarked), for which the AC50 under setting [1] was no less than 5000 nM.
